Measurements taken from patent publication US9872874B2 (Cyclacel Limited, priority 2012, dated 2018).

How the values were obtained:
[1] = Phase I study of sequential sapacitabine and seliciclib, Schedule 2: dose escalation, MTD, DLT and adverse events; assay type: in vivo; conditions: Schedule 2: sapacitabine b.i.d. days 1-7, seliciclib b.i.d. days 8-10, 11 days of rest; 27 patients
Procedure: Phase I Study of Sequential Sapacitabine and Seliciclib in Patients with Advanced Solid Tumors
(§1) At least 3 patients were evaluated per dose level.

H2AX staining = assay: Skin biopsies to assess DNA damage (H2AX staining) in the Phase I study; assay type: in vivo, patients
Procedure: as §1

[2] = phase I, single agent; cited from earlier work
colon cancer = conditions: model of colon cancer, compared with gemcitabine or 5-FU; cited from earlier work
A549 cells = conditions: twenty-four hour treatment; cited from earlier work

Row | SMILES | MTD and recommended phase II dose (RP2D) [1] [mg b.i.d.] | increase in H2AX staining post-sapacitabine (H2AX staining; day 8 vs pre-treatment, n=16, P=0.007) [fold] | dose limiting toxicity [2] | tolerability in humans [2] | increasing survival and preventing spread of colon cancer metastases to the liver (colon cancer) | further increase in H2AX staining post-seliciclib (H2AX staining; day 11 vs day 8, n=12, P=0.069) [fold] | expression of key genes involved in HR (BRCA1 and RAD50) and NHEJ (Ku80, DNA-PK and NHEJ1) (A549 cells)
1 | CCCCCCCCCCCCCCCC(=O)Nc1ccn(C2O[C@H](CO)[C@@H](O)[C@@H]2C#N)c(=O)n1 (stereo partly drawn) [sapacitabine, 1-(2-C-cyano-2-dioxy-β-D-arabino-pentofuranosyl)-N^4-palmitoyl cytosine] | 50 | 2.3 | myelosuppression | well tolerated | superior to either gemcitabine or 5-FU | – | –
2 | CC[C@H](CO)Nc1nc(NCc2ccccc2)c2ncn(C(C)C)c2n1 [seliciclib, 6-benzylamino-2-[(R)-1-ethyl-2-hydroxyethylamino]-9-isopropylpurine] | 1200 | – | – | – | – | 0.58 | significant downregulation
